The compounds below were run on IL-1b (assay: Human Monocyte IL-1b Assay). Details: Homo sapiens, Monocyte, fresh human whole blood; compound 0.5 h, 100 ng/mL LPS 3.5 h at 37° C., 5 mM ATP 45 min; IL-1b in supernatant by ELISA.
Assay type: cell-based
Procedure: Example 46: Human Monocyte IL-1b Assay
Serially diluted testing compounds were incubated with […] of fresh human whole blood for 0.5 hours. Cells were primed with 100 ng/mL lipopolysaccharide (LPS) for 3.5 hours at 37° C. followed by stimulation with 5 mM ATP for an additional 45 minutes. The concentration of IL-1b concentration in the supernatant was determined with commercially available ELISA kits. Negative controls are wells without stimulation, while positive controls are wells with stimulation but only DMSO without compounds added. After background subtraction, compound treatment wells were then normalized to the positive controls for IC50 calculations.

IC50, < 500 nM:
Cc1cc([C@H](O)[C@@H]2CCCNC2)nnc1-c1ccc(C(F)(F)F)cc1O [Compound 40, 2-(6-((R)-hydroxy((R)-piperidin-3-yl)methyl)-4-methylpyridazin-3-yl)-5-(trifluoromethyl)phenol]
Cc1cc([C@H](O)[C@@H]2CCCN(C(C)C)C2)nnc1-c1ccc(C(F)(F)F)cc1O [Compound 41, 2-(6-((R)-hydroxy((R)-1-isopropylpiperidin-3-yl)methyl)-4-methylpyridazin-3-yl)-5-(trifluoromethyl)phenol]
Cc1cc(C(O)[C@@H]2CCCN(C)C2)nnc1-c1cc(F)c(C(F)(F)F)cc1O (stereo partly drawn) [Compound 42, 4-fluoro-2-(6-(hydroxy((R)-1-methylpiperidin-3-yl)methyl)-4-methylpyridazin-3-yl)-5-(trifluoromethyl)phenol]
CCN1CCC[C@@H]([C@@H](O)c2cc(C)c(-c3ccc(C(F)(F)F)cc3O)nn2)C1 [Compound 45, 2-(6-((R)-((R)-1-ethylpiperidin-3-yl)(hydroxy)methyl)-4-methylpyridazin-3-yl)-5-(trifluoromethyl)phenol]
